Experiment [1] concerns P. falciparum 3D7 strain parasites. To be noted: parasite-killing activity reported earlier, read-out: Pf3D7 IC50, cited from earlier work.
The subject of experiment [2] is G9a activity in cells (H3K9me2 levels). The settings on record: reduction of H3K9me2 levels, ICW; cited from earlier work.
The target in experiment [3] is T1, G9a (Homo sapiens, UniProt Q96KQ7).
T1 sequence (Q96KQ7 1-1210): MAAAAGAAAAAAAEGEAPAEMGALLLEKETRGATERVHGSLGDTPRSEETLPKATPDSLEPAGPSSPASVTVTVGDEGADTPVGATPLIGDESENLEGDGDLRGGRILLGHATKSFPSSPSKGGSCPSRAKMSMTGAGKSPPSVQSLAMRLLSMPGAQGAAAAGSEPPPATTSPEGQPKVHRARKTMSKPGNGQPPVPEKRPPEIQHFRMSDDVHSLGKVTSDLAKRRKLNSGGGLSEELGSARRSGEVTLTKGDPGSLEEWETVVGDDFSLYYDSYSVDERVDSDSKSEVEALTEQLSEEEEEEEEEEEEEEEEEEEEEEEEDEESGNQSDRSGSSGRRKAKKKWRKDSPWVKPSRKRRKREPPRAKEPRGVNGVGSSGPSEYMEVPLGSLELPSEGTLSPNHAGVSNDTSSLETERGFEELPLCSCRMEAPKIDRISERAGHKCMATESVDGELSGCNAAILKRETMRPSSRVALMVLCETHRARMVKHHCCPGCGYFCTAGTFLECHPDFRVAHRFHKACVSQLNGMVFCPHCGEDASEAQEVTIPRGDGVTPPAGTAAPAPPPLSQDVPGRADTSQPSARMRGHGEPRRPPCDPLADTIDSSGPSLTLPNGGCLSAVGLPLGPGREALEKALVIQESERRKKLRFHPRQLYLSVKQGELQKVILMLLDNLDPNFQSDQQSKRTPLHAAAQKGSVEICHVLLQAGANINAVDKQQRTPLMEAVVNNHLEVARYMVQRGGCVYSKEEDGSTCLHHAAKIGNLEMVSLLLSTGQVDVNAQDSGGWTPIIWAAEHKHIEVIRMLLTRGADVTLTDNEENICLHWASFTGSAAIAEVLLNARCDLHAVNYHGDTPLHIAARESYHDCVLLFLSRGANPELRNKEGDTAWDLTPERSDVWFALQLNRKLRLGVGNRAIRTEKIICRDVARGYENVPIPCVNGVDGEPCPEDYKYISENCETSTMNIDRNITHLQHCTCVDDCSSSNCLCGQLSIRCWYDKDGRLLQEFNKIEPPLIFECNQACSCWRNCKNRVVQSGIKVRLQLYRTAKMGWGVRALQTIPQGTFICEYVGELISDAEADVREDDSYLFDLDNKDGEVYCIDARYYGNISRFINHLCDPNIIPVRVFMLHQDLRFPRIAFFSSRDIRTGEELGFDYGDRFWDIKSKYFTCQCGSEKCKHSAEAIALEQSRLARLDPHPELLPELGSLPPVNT
To be noted: for pIC50: read-out: G9a IC50, SPA, 5 nM G9a, H3 1-25 peptide 0.8 μM, 3H-SAM 8 μM.

Experiment [4] relates to HepG2 cells. Nature of the experiment: cells. The settings on record: Homo sapiens, HepG2, read-out: anti-HepG2 IC50.
The subject of experiment [5] is synchronised P. falciparum parasites. Nature of the experiment: In vitro stage-dependent antimalarial activity. Format: cell-based. To be noted: 10× IC50, three distinct 12 hour periods of the intra-erythrocytic life cycle; re-invasion and out-growth. On the procedure:
Stage-specific compound treatment effects were elucidated using highly synchronized parasites in 48-well plates with a starting parasitemia of 0.75% and a hematocrit of 2%. […] After treatment, parasites were washed with warm RPMI 1640 medium and placed back into culture without test compound for analysis of re-invasion after completion of the cell cycle in which treatment occurred. Washed parasites after treatment were also diluted 1 : 16 and allowed to grow without compound for an additional two cell cycles (4 days). Parasitemia after re-invasion or after 4 day growth was quantified on infected cells fixed in 0.025% glutaraldehyde and stained with 2× SYBR Green I (Lonza) in PBS.

Experiment [6] concerns H3K4me3 levels in P. falciparum 3D7 parasites. Nature of the experiment: Parasite histone methylation analysis (Western blot), H3K4me3. Type of experiment: cell-based. To be noted: 12 h treatment, relative to DMSO control. The procedure: (§1) Parasites were treated with drugs for 12 h. After treatment, infected red blood cells were collected and lysed with PBS containing 0.15% saponin. Free parasites were lysed by bath sonication in 1% SDS-PBS and analysed by Western Blot. Blots were probed with primary antibodies specific for H3K4me3 (Abcam ab1012 1 : 1000), H3 core (Abcam ab1791, 1 : 3000) and H3K9me3 (Abcam ab8898, 1 : 1000) diluted in TBS-T (50 mM Tris pH 7.5, 150 mM NaCl, 0.05% Tween-20, 5% BSA), followed by anti-mouse HRP (GE NA931V) or anti-rabbit HRP (GE NA934V) secondary antibodies.
For orientation: Immunoblotting shows a protein as a band on a membrane.

Experiment [7] deals with H3K9me3 levels in P. falciparum 3D7 parasites. Nature of the experiment: Parasite histone methylation analysis (Western blot), H3K9me3. Type of experiment: cell-based. The settings on record: 12 h treatment, relative to DMSO control. On the procedure:
as §1

In the next experiment the test system is PfSET7. Nature of the experiment: Initial activity assays using PfSET7. Type of experiment: biochemical, P. falciparum. To be noted: data not shown.
Experiment [8] concerns the target T1, G9a. To be noted: read-out: G9a IC50; CLOT assay; cited from earlier work.
In experiment [9] the test system is HepG2 cells. To be noted: read-out: HepG2 IC50; Tables ST1 and ST2.
In experiment [10] the test system is P. falciparum 3D7 strain parasites. In words: microbe, parasite or virus in culture. To be noted: Plasmodium falciparum, 3D7, 72 h, read-out: Pf3D7 IC50.

pIC50: −log10 of the molar value. Like-named read-outs stand apart in the source and are kept apart here. Some results are limits rather than exact numbers.

For `COc1cc2c(NC3CCN(C)CC3)nc(N3CCCN(C)CC3)nc2cc1OCCCN1CCCCC1` [compound 64], in experiment [1] (P. falciparum 3D7), the pIC50 is less than 5.70. In addition, in [2], the “G9a activity in cells” value was “moderate G9a activity in cells”.

For `COc1cc2c(NC3CCN(C)CC3)nc(N3CCCN(C)CC3)nc2cc1OCCCN1CCCC1` [compound 65], the pIC50 in experiment [1] (P. falciparum 3D7) was less than 5.70. Besides, the “G9a activity in cells” value in [2] was “moderate G9a activity in cells”.

With `COc1cc2nc(N3CCCCC3)nc(NC3CCN(C)CC3)c2cc1OC` [compound 40], the pIC50 is 6.23 on G9a [3] and less than 5.00 in the experiment with HepG2 cells [4].

In the case of `COc1cc2nc(N3CCCN(C)CC3)nc(NC3CCN(Cc4ccccc4)CC3)c2cc1OC` [compound 1, reference compound], in experiment [5], the stage-dependent killing phenotype entry is recorded as “erythrocytic stage-independent killing phenotype”. The H3K4me3 levels entry in experiment [6] was “decrease”. For the same compound, in experiment [7], the H3K9me3 levels result is given as “decrease”. The PfSET7 as target entry in the experiment on PfSET7 is “PfSET7 not to be the target”.

As for `COCCCCOc1cc2nc(N3CCCN(C)CC3)nc(NC3CCN(C)CC3)c2cc1OC` [compound 71], the pIC50 at G9a [8] is less than 5.00.

Turning to `COc1cc2nc(N3CCOCC3)nc(NC3CCN(Cc4ccccc4)C3)c2cc1OC` (stereo not shown) [S15], the G9a/Pf3D7 at G9a [3] (ratio of G9a IC50 to Pf3D7 IC50) is recorded as greater than 6.6. In addition, the pIC50 at G9a [3] was less than 6.00; in the experiment with HepG2 cells [9], 4.82; in experiment [1] (Tables ST1-ST4, ref 1 (supplement)), 6.82.

With `CCN(CC)CCCC(C)Nc1ccnc2cc(Cl)ccc12` (stereo not shown) [Chloroquine], the pIC50 in experiment [10] was 8.10.

Usually pIC50 stands for the negative decadic logarithm of the IC50, by convention in mol/L.

These data come from publication PMC5708365, “Histone lysine methyltransferase structure activity relationships that allow for segregation of G9a inhibition and anti-Plasmodium activity” (MedChemComm, 2017).
